Experimental data published in patent publication US10457703B2, “Bile acid derivatives as FXR/TGR5 agonists and methods of use thereof” (ENANTA PHARMACEUTICALS, INC., priority 2015, dated 2019).

Target: human FXR (NR1H4) (Homo sapiens (Human), UniProt Q96RI1)
Assay: Human FXR (NR1H4) Assay (Gal4 promoter driven luciferase reporter, Indigo Bioscience kit);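 on Efficacy (%): 100% equals the efficacy of CDCA; efficacy normalized to CDCA set as 100%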
Format: cell-based
Details: for EC50: Human FXR (NR1H4) Assay, potency ranges; for Emax: read-out: Efficacy (%)
Description: ASSAYS Human FXR (NR1H4) Assay
Determination of a ligand mediated Gal4 promoter driven transactivation to quantify ligand binding mediated activation of FXR. FXR Reporter Assay kit purchased from Indigo Bioscience (Catalogue number: IB00601) to determine the potency and efficacy of compound developed by Enanta that can induce FXR activation. The principle application of this reporter assay system is to quantify functional activity of human FXR. The assay utilizes non-human mammalian cells, CHO (Chinese hamster ovary) cells engineered to express human NR1H4 protein (referred to as FXR). Reporter cells also incorporate the cDNA encoding beetle luciferase which catalyzes the substrates and yields photon emission. Luminescence intensity of the reaction is quantified using a plate-reading luminometer, Envision. Reporter Cells include the luciferase reporter gene functionally linked to an FXR responsive promoter. Thus, quantifying changes in luciferase expression in the treated reporter cells provides a sensitive surrogate measure of the changes in FXR activity. […] The assay is according to the manufacturer's instructions. In brief, the assay was performed in white, 96 well plates using final volume of 100 uL containing cells with different doses of compounds. Retrieve Reporter Cells from −80° C. storage. Perform a rapid thaw of the frozen cells by transferring a 10 ml volume of 37° C. cell recovery medium into the tube of frozen cells. Recap the tube of Reporter Cells and immediately place it in a 37° C. water bath for 5-10 minutes. Retrieve the tube of Reporter Cell Suspension from the water bath. Sanitize the outside surface of the tube with a 70% alcohol swab, and then transfer it into the cell culture hood. Dispense 90 μl of cell suspension into each well of the 96-well Assay Plate. Transfer the plate into 37° C. incubator, allowing the cells adherent to the bottom of the well. Dilute compounds in Dilution Plate (DP), and administrate to cells at Assay Plate (AP). DMSO content of the samples was kept at 0.2%. Cells were incubated for additional 22 hours before luciferase activities were measured. Thirty minutes before intending to quantify FXR activity, remove Detection Substrate and Detection Buffer from the refrigerator and place them in a low-light area so that they may equilibrate to room temperature. Remove the plate's lid and discard all media contents by ejecting it into an appropriate waste container. Gently tap the inverted plate onto a clean absorbent paper towel to remove residual droplets. Cells will remain tightly adhered to well bottoms. Add 100 μl of luciferase detection reagent to each well of the assay plate. Allow the assay plate to rest at room temperature for at least 5 minutes following the addition of LDR. Set the instrument (Envision) to perform a single 5 second “plate shake” prior to reading the first assay well. Read time may be 0.5 second (500 mSec) per well.

Chain of human FXR (NR1H4) (Q96RI1 whole entry, the tested form may be a part): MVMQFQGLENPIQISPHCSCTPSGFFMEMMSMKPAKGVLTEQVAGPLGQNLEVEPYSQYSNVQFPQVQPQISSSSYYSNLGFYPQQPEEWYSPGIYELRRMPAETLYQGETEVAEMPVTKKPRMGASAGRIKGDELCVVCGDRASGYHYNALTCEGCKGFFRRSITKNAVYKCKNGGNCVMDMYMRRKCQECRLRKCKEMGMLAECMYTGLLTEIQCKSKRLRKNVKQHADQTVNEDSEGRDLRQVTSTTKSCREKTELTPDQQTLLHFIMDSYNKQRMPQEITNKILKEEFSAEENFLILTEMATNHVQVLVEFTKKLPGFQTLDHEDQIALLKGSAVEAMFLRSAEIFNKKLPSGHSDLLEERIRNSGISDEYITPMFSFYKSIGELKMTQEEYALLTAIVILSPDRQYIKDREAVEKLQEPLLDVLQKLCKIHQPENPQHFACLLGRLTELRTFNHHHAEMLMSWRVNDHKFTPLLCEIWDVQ

Row | Compound | EC50 [nM] | Emax [%]
1 | CC[C@H]1[C@@H](O)[C@@H]2[C@H](CC[C@]3(C)[C@@H]([C@H](C)CCCOC(=O)NS(=O)(=O)c4ccc(C)cc4)CC[C@@H]23)[C@@]2(C)CC[C@@H](O)C[C@@H]12 [Example 1] | 100 to 1000 | 422
2 | CC[C@H]1[C@@H](O)[C@@H]2[C@H](CC[C@]3(C)[C@@H]([C@H](C)CCCOC(=O)NS(=O)(=O)C4CCCCC4)CC[C@@H]23)[C@@]2(C)CC[C@@H](O)C[C@@H]12 [Example 2] | 100 to 1000 | 247
3 | CC[C@H]1[C@@H](O)[C@@H]2[C@H](CC[C@]3(C)[C@@H]([C@H](C)COC(=O)NS(=O)(=O)c4ccc(C(C)(C)C)cc4)CC[C@@H]23)[C@@]2(C)CC[C@@H](O)C[C@@H]12 [Example 4] | < 100 | 319
4 | CC[C@H]1[C@@H](O)[C@@H]2[C@H](CC[C@]3(C)[C@@H]([C@H](C)COC(=O)NS(=O)(=O)c4ccc(C)cc4)CC[C@@H]23)[C@@]2(C)CC[C@@H](O)C[C@@H]12 [Example 5] | 100 to 1000 | 85
5 | CC[C@H]1[C@@H](O)[C@@H]2[C@H](CC[C@]3(C)[C@@H]([C@H](C)COC(=O)NS(=O)(=O)c4ccc(OC(F)(F)F)cc4)CC[C@@H]23)[C@@]2(C)CC[C@@H](O)C[C@@H]12 [Example 6] | 100 to 1000 | 298
6 | CC[C@H]1[C@@H](O)[C@@H]2[C@H](CC[C@]3(C)[C@@H]([C@H](C)COC(=O)NS(=O)(=O)N(C)C)CC[C@@H]23)[C@@]2(C)CC[C@@H](O)C[C@@H]12 [Example 7] | 1000 to 10000 | 168
7 | CC[C@H]1[C@@H](O)[C@@H]2[C@H](CC[C@]3(C)[C@@H]([C@H](C)COC(=O)NS(=O)(=O)C4CCCCC4)CC[C@@H]23)[C@@]2(C)CC[C@@H](O)C[C@@H]12 [Example 8] | 100 to 1000 | 327
8 | CC[C@H]1[C@@H](O)[C@@H]2[C@H](CC[C@]3(C)[C@@H]([C@H](C)COC(=O)NS(=O)(=O)c4ccc(N5CCCCC5)cc4)CC[C@@H]23)[C@@]2(C)CC[C@@H](O)C[C@@H]12 [Example 9] | < 100 | 208
9 | CC[C@H]1[C@@H](O)[C@@H]2[C@H](CC[C@]3(C)[C@@H]([C@H](C)COC(=O)NS(=O)(=O)c4ccc(-c5ccccc5)s4)CC[C@@H]23)[C@@]2(C)CC[C@@H](O)C[C@@H]12 [Example 10] | < 100 | 259
10 | CC[C@H]1[C@@H](O)[C@@H]2[C@H](CC[C@]3(C)[C@@H]([C@H](C)COC(=O)NS(=O)(=O)c4ccc(C5CCCCC5)cc4)CC[C@@H]23)[C@@]2(C)CC[C@@H](O)C[C@@H]12 [Example 11] | < 100 | 224
11 | CC[C@H]1[C@@H](O)[C@@H]2[C@H](CC[C@]3(C)[C@@H]([C@H](C)COC(=O)NS(=O)(=O)c4ccc5ccccc5c4)CC[C@@H]23)[C@@]2(C)CC[C@@H](O)C[C@@H]12 [Example 12] | < 100 | 217
12 | CC[C@H]1[C@@H](O)[C@@H]2[C@H](CC[C@]3(C)[C@@H]([C@H](C)COC(=O)NS(=O)(=O)N4CCCC4)CC[C@@H]23)[C@@]2(C)CC[C@@H](O)C[C@@H]12 [Example 13] | 100 to 1000 | 324
13 | CC[C@H]1[C@@H](O)[C@@H]2[C@H](CC[C@]3(C)[C@@H]([C@H](C)COC(=O)NS(=O)(=O)c4ccc(N5CCCCC5)nc4)CC[C@@H]23)[C@@]2(C)CC[C@@H](O)C[C@@H]12 [Example 14] | < 100 | 270
14 | CC[C@H]1[C@@H](O)[C@@H]2[C@H](CC[C@]3(C)[C@@H]([C@H](C)COC(=O)NS(=O)(=O)c4ccc(N5CCOCC5)nc4)CC[C@@H]23)[C@@]2(C)CC[C@@H](O)C[C@@H]12 [Example 15] | < 100 | 197
15 | CC[C@H]1[C@@H](O)[C@@H]2[C@H](CC[C@]3(C)[C@@H]([C@H](C)COC(=O)NS(=O)(=O)c4ccc(-n5cccn5)nc4)CC[C@@H]23)[C@@]2(C)CC[C@@H](O)C[C@@H]12 [Example 16] | < 100 | 187
16 | CC[C@H]1[C@@H](O)[C@@H]2[C@H](CC[C@]3(C)[C@@H]([C@H](C)COC(=O)NS(=O)(=O)c4ccc(N5CCC5)cc4)CC[C@@H]23)[C@@]2(C)CC[C@@H](O)C[C@@H]12 [Example 17] | < 100 | 211
17 | CC[C@H]1[C@@H](O)[C@@H]2[C@H](CC[C@]3(C)[C@@H]([C@H](C)COC(=O)NS(=O)(=O)c4ccc(N5CCCCC5=O)cc4)CC[C@@H]23)[C@@]2(C)CC[C@@H](O)C[C@@H]12 [Example 18] | < 100 | 221
18 | CC[C@H]1[C@@H](O)[C@@H]2[C@H](CC[C@]3(C)[C@@H]([C@H](C)COC(=O)NS(=O)(=O)c4ccc(N5CCOCC5)cc4)CC[C@@H]23)[C@@]2(C)CC[C@@H](O)C[C@@H]12 [Example 19] | < 100 | 219
19 | CC[C@H]1[C@@H](O)[C@@H]2[C@H](CC[C@]3(C)[C@@H]([C@H](C)COC(=O)NS(=O)(=O)c4ccc(N5CCC(C)(C)CC5)cc4)CC[C@@H]23)[C@@]2(C)CC[C@@H](O)C[C@@H]12 [Example 20] | < 100 | 203
20 | CC[C@H]1[C@@H](O)[C@@H]2[C@H](CC[C@]3(C)[C@@H]([C@H](C)COC(=O)NS(=O)(=O)c4ccc(N5CCC(F)(F)CC5)cc4)CC[C@@H]23)[C@@]2(C)CC[C@@H](O)C[C@@H]12 [Example 21] | < 100 | 225
21 | CC[C@H]1[C@@H](O)[C@@H]2[C@H](CC[C@]3(C)[C@@H]([C@H](C)COC(=O)NS(=O)(=O)c4ccc(N5CCCCCC5)cc4)CC[C@@H]23)[C@@]2(C)CC[C@@H](O)C[C@@H]12 [Example 22] | < 100 | 262
22 | CC[C@H]1[C@@H](O)[C@@H]2[C@H](CC[C@]3(C)[C@@H]([C@H](C)COC(=O)NS(=O)(=O)c4ccc5ncccc5c4)CC[C@@H]23)[C@@]2(C)CC[C@@H](O)C[C@@H]12 [Example 23] | < 100 | 182
23 | CC[C@H]1[C@@H](O)[C@@H]2[C@H](CC[C@]3(C)[C@@H]([C@H](C)COC(=O)NS(=O)(=O)c4cnc5ccccc5c4)CC[C@@H]23)[C@@]2(C)CC[C@@H](O)C[C@@H]12 [Example 24] | < 100 | 193
24 | CC[C@H]1[C@@H](O)[C@@H]2[C@H](CC[C@]3(C)[C@@H]([C@H](C)COC(=O)NS(=O)(=O)c4ccc(-c5ccc(C(C)(C)C)cc5)s4)CC[C@@H]23)[C@@]2(C)CC[C@@H](O)C[C@@H]12 [Example 25] | 100 to 1000 | 182
25 | CC[C@H]1[C@@H](O)[C@@H]2[C@H](CC[C@]3(C)[C@@H]([C@H](C)COC(=O)NS(=O)(=O)c4ccc(-c5ccc(OC(F)(F)F)cc5)s4)CC[C@@H]23)[C@@]2(C)CC[C@@H](O)C[C@@H]12 [Example 26] | 100 to 1000 | 206
26 | CC[C@H]1[C@@H](O)[C@@H]2[C@H](CC[C@]3(C)[C@@H]([C@H](C)COC(=O)NS(=O)(=O)c4ccc(-c5ccc(C(F)(F)F)cc5)s4)CC[C@@H]23)[C@@]2(C)CC[C@@H](O)C[C@@H]12 [Example 27] | 100 to 1000 | 173
27 | CC[C@H]1[C@@H](O)[C@@H]2[C@H](CC[C@]3(C)[C@@H]([C@H](C)COC(=O)NS(=O)(=O)c4ccc(-c5ccc(F)cc5)cc4)CC[C@@H]23)[C@@]2(C)CC[C@@H](O)C[C@@H]12 [Example 28] | < 100 | 194
28 | CC[C@H]1[C@@H](O)[C@@H]2[C@H](CC[C@]3(C)[C@@H]([C@H](C)COC(=O)NS(=O)(=O)c4cccc(OC(C)(C)C)c4)CC[C@@H]23)[C@@]2(C)CC[C@@H](O)C[C@@H]12 [Example 29] | 100 to 1000 | 186
29 | CC[C@H]1[C@@H](O)[C@@H]2[C@H](CC[C@]3(C)[C@@H]([C@H](C)COC(=O)NS(=O)(=O)c4ccc(OC(C)(C)C)cc4)CC[C@@H]23)[C@@]2(C)CC[C@@H](O)C[C@@H]12 [Example 30] | < 100 | 261
